In US5744023A, “Method for separation and recovery of organogermanium compound” (Asai Germanium Research Institute Co., Ltd., priority 1994, dated 1998) one finds LD50 data, which are given here for one compound.

The nature of data set [1]: acute oral toxicity (LD50) in mice. The following applies: mouse, in vivo, orally administered. The text has this:
(§1) Since these organogermanium compounds are an expensive and valuable resource, it is desirable that they can be separated and recovered from respective reaction mixtures for reutilization. However, both the saccharides and the organogermanium compounds are organic compounds of fairly high molecular weights and no method for effective separation of the two kinds of the compounds is known.

A short description of data set [2]: acute oral toxicity (LD50) in rats. The following applies: rat, in vivo, orally administered.
Text: as §1

With `O=C(O)C[CH2][Ge](=[O])[O][Ge](=[O])[CH2]CC(=O)O` [Compound 1, 2-carboxyethylgermanium sesquioxide], the median lethal dose (LD50) is ≥ 6000 mg/kg in data set [1] and ≥ 10000 mg/kg in data set [2].
